From US9085786B2, “Process for the production of polyamines” (BASF SE, priority 2009, dated 2015) come the findings set out here.

In one data set the target is T1, AOX (alcohol oxidase) (Komagataella phaffii, UniProt P04842).
T1 sequence (P04842 1-663): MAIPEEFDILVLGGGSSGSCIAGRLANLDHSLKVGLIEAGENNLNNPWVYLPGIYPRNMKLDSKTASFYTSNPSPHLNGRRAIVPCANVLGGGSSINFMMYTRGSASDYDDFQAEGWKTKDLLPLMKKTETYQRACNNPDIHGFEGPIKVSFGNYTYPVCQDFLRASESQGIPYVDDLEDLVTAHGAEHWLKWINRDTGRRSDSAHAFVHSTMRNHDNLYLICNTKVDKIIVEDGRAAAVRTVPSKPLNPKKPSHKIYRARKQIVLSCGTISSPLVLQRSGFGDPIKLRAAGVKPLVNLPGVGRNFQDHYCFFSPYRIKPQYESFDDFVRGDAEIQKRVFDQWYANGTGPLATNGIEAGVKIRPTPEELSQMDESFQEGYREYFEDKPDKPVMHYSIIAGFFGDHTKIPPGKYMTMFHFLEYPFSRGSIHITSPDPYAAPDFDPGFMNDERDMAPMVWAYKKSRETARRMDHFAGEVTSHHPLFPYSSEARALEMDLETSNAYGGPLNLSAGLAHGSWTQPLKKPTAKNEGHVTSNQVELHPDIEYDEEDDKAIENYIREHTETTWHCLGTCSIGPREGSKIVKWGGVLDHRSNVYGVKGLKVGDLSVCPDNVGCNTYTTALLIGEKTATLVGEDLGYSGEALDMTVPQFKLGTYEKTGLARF
The class given is biochemical. To be noted: for Vmax / Relative activity: pH 7.0, 100 mM MOPS-buffer; for Vmax: compound as substrate; for Relative activity: ethanol = 100. The source says:
In the AOX approach cofactor regeneration is not required. The reaction is further driven by the Catalase-catalyzed decomposition of hydrogen peroxide. […]
The enzyme was obtained from commercially available from Sigma Aldrich.
Reaction followed […] preference of one enantiomer over the other as substrate, as defined by the division of the specificity constants. The specificity constant is defined as kcat/Km.

For data set [1], the system named is HLADH (Horse Liver Alcohol Dehydrogenase). The experiment in a line: Kinetic constants for HLADH, spectrophotometric assay of NADH formation at 340 nm. Format: biochemical, Equus caballus. The note with it: for Km / Vmax / Relative activity: pH 9.1, 100 mM CHES-buffer; for Km / Vmax: compound as substrate; for Relative activity: ethanol = 100; for E-value: pH 9.1, preference of one enantiomer over the other, ratio of specificity constants kcat/Km. The source says: In the HLADH approach cofactor regeneration is accomplished by the use of vinyl acetate. Vinyl acetate rapidly hydrolyzes at pH 9.1, decomposing into acetic acid and acetic aldehyde. The aldehyde can be reduced by HLADH into ethanol, thereby forming NAD^+ from NADH. Unreacted acetic aldehyde can be removed by bubbling N2 after deactivating the enzyme with EDTA or H2O2. For the alcohol dehydrogenase HLADH the reaction was spectrophotometrically followed by the formation of NADH at 340 nm. Different concentrations of the various amino alcohols were used to obtain the Michaelis-Menten kinetic constants.
This reaction was performed at pH 9.1. The enzyme was obtained from commercially available from Sigma Aldrich.
Reaction catalysed by HLADH was followed spectrophotometrically at 340 nm, by the formation of NADH.

Substrate in data set [2]: CCO
The data set can be described thus: purified protein, by the assay type. The note with it: other: AOX, pH 7.0, 100 mM MOPS-buffer, compound as substrate.

A value given as a limit tells only on which side of the number the result lay.

`NCCCO` [3-Amino-propan-1-ol]: on AOX (alcohol oxidase), the Vmax amounted to 0.021 µmol/min/mg and the Relative activity is 0.18%. Also, in data set [1], the Km was 13 mM, the Vmax turned out to be 0.17 µmol/min/mg and the Relative activity turned out to be 11%.
`C[C@@H](N)CO` [R-2-Amino-propan-1-ol]: on AOX (alcohol oxidase), the Vmax was 0.10 µmol/min/mg and the Relative activity turned out to be 0.88%. In addition, the E-value at AOX (alcohol oxidase) (pH 7.0, preference of one enantiomer over the other, ratio of specificity constants kcat/Km) came to 3.6. Further, in data set [1], the Vmax is less than 0.0007 µmol/min/mg, the Relative activity was roughly 0% and the E-value was greater than 300.
Regarding `C[C@H](N)CO` [S-2-Amino-propan-1-ol], on AOX (alcohol oxidase), the maximum rate (Vmax) stood at 0.37 µmol/min/mg and the Relative activity worked out at 3.2%. In addition, in data set [1], the Km came out at 6.3 mM, the maximum rate (Vmax) came out at 0.21 µmol/min/mg and the Relative activity came out at 14%.
With `NCCO` [2-Amino-ethanol], at AOX (alcohol oxidase), the Vmax result is “Very low” and the Relative activity was roughly 0%. In data set [1], the Vmax was less than 0.005 µmol/min/mg and the Relative activity was roughly 0%.
As for `NC[C@@H](O)c1ccccc1` [S-2-Amino-1-phenyl-ethanol], in data set [1], the Km turned out to be 6.2 mM, the Vmax is 0.21 µmol/min/mg and the Relative activity was 14%.
The molecule `CCO` [Ethanol, reference compound] gave a Relative activity at AOX (alcohol oxidase) of 100%. Further, in data set [1], the Km turned out to be 0.6 mM, the Vmax came out at 1.5 µmol/min/mg and the Relative activity worked out at 100%.
With `NC[C@H](O)c1ccccc1` [R-2-Amino-1-phenyl-ethanol], in data set [1], the Vmax is less than 0.002 µmol/min/mg, the Relative activity is recorded as roughly 0% and the E-value is greater than 100.
Take `NCC(O)c1ccccc1` (stereo not drawn) [2-Amino-1-phenyl ethanol]: at AOX (alcohol oxidase) (ABTS replaced by pyrogallol or purpald, rates not reproducible), the “Catalysis of the reaction and appearance of aldehyde” value is “the enzyme was catalysing the reaction and the appearance of aldehyde”.
Take `CC(O)CN` (racemic) [1-Amino-propan-2-ol (rac), 1-Amino-propan-2-ol]: at AOX (alcohol oxidase), the Relative activity was found to be 0%. In addition, in data set [1], the Vmax is 0 µmol/min/mg and the Relative activity turned out to be 0%.

B1: AOX (alcohol oxidase) (Komagataella phaffii GS115) (protein)
chain: T1 sequence (P04842 1-663)
Turning to B1, in data set [2], the Michaelis constant (Km) turned out to be 1.3 mM and the Vmax is 12 µmol/min/mg.
